In patent US12173004B2, “Pharmaceutical compositions comprising heterocycle fused gamma carboline prodrugs” (INTRA-CELLULAR THERAPIES, INC., priority 2017, dated 2024):

Tests used:
[1] = target: 5-HT2 receptor (Mus musculus (Mouse), UniProt P35363); experiment: DOI-Induced Head Twitch Model in Mice; type: in vivo; conditions: po, p.o. 0.5 hr before DOI, read-out: EC50 (mg/kg, p.o.) for reducing DOI-induced head twitches
[2] = target: TH (tyrosine hydroxylase) (Mus musculus (Mouse), UniProt P24529); experiment: CNS phosphoprotein profile, nucleus accumbens: TH; type: in vivo, mice; conditions: for increase in TH phosphorylation: Ser40, haloperidol at 2 mg/kg
Protocol: (§1) A comprehensive molecular phosphorylation study is also carried out to examine the central nervous system (CNS) profile of the compounds of Example 1 and Example 2. The extent of protein phosphorylation for selected key central nervous system proteins is measured in mice nucleus accumbens.
(§2) Mice were killed 30 minutes to 2 hours post-injection by focused microwave cranial irradiation, which preserves brain phosphoprotein as it exists at the time of death. Nucleus accumbens was then dissected from each mouse brain, sliced and frozen in liquid nitrogen. Samples were further prepared for phosphoprotein analysis via SDS-PAGE electrophoresis followed by phosphoprotein-specific immunoblotting, as described in Zhu H, et al., Brain Res. 2010 Jun. 25; 1342:11-23. Phosphorylation at each site was quantified, normalized to total levels of the protein (non-phosphorylated), and expressed as percent of the level of phosphorylation in vehicle-treated control mice.

[3] = target: NR2B (Mus musculus (Mouse), UniProt Q01097); experiment: CNS phosphoprotein profile, nucleus accumbens: NR2B; type: in vivo, mice; conditions: 3 mg/kg, at 30-60 minutes
NR2B, sequence (Q01097 27-1482 limits assumed): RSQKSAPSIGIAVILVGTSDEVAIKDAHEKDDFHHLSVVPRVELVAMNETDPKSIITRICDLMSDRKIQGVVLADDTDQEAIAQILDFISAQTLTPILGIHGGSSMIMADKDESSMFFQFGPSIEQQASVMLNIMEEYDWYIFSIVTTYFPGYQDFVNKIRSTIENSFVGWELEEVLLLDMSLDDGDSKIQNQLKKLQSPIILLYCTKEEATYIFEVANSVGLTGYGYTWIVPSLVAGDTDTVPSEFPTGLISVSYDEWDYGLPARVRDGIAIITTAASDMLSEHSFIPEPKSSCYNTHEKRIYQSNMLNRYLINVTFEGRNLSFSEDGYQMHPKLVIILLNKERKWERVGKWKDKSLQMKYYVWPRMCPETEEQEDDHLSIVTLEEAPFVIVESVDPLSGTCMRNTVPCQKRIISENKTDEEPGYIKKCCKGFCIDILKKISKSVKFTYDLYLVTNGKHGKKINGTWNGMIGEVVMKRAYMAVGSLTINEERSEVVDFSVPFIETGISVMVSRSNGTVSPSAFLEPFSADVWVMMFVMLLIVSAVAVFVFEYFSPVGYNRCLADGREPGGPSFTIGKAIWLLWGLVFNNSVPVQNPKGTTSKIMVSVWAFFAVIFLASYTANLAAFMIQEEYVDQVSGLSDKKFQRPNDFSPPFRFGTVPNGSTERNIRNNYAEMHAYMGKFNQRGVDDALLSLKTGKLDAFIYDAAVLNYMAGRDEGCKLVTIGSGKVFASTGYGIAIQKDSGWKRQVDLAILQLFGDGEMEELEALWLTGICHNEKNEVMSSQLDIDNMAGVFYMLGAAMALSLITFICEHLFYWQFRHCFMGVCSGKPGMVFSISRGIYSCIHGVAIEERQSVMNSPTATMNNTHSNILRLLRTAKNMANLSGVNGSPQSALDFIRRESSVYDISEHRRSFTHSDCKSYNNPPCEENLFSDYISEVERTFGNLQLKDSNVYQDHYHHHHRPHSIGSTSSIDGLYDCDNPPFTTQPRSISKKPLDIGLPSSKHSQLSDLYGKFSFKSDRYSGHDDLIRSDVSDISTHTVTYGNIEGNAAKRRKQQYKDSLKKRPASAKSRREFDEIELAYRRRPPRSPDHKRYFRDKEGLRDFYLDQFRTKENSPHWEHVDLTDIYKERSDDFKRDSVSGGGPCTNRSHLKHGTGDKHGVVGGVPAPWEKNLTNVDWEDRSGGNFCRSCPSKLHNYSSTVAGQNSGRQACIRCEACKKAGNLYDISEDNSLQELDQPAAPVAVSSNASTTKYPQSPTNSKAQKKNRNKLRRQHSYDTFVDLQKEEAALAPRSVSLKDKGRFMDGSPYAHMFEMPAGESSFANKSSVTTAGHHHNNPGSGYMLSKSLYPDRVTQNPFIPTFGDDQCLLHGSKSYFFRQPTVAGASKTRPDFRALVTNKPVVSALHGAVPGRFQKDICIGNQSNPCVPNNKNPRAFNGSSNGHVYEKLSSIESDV
Protocol: as §1, §2

[4] = target: GluR1 (Mus musculus (Mouse), UniProt P23818); experiment: CNS phosphoprotein profile, nucleus accumbens: GluR1; type: in vivo, mice; conditions: 3 mg/kg
GluR1, sequence (P23818 19-907 limits assumed): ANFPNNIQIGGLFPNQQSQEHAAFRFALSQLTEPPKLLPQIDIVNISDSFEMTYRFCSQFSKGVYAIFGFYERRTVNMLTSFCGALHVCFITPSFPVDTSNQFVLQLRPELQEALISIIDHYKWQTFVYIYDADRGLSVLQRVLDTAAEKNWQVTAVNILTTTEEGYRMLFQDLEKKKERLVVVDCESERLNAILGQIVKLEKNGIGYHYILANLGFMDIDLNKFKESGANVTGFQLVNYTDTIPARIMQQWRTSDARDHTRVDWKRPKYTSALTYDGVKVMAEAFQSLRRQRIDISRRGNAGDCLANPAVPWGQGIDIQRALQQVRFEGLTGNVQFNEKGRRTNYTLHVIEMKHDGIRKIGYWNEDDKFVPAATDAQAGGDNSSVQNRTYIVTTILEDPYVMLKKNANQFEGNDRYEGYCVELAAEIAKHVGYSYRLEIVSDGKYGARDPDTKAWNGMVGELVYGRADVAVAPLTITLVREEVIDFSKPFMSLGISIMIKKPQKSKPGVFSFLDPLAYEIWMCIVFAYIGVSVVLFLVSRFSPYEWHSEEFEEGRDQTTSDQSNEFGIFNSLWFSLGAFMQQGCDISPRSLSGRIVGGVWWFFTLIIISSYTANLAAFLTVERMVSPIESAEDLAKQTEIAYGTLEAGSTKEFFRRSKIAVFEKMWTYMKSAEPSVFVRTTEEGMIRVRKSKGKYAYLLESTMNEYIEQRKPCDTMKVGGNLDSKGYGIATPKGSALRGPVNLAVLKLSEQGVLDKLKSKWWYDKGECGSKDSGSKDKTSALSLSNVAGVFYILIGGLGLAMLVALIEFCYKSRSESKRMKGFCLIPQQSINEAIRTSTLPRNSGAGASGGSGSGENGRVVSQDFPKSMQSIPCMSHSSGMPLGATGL
Protocol: as §1, §2

[5] = target: ERK2 (Mus musculus (Mouse), UniProt P63085); experiment: CNS phosphoprotein profile, nucleus accumbens: ERK2; type: in vivo, mice; conditions: 3 mg/kg
Protocol: as §1, §2

[6] = target: D1 (Homo sapiens (Human), UniProt P21728); conditions: read-out: Ki (nM) D1
[7] = target: D2 (Homo sapiens (Human), UniProt P14416); experiment: biochemical; conditions: read-out: maximum inhibition D2
D2, sequence (P14416 with tags, fused parts or gaps limits assumed): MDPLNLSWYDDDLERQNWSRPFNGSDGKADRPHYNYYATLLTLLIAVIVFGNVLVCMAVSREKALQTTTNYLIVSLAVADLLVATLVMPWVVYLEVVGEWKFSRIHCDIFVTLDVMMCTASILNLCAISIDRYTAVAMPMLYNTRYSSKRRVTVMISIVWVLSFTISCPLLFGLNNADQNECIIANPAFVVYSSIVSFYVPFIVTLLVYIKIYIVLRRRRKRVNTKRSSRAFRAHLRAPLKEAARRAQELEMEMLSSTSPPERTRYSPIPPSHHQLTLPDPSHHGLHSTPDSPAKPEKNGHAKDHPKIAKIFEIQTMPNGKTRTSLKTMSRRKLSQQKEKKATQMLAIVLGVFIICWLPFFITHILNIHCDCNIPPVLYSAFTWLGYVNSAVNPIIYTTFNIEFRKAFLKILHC

[8] = system: Mice; experiment: Mouse Marble-Burying Study (OCD Model); type: in vivo
Excerpt: The marble burying test is used to measure repetitive and anxiety-related behavior in rodents. It is based on the observation that rats and mice will bury either harmful or harmless objects in their bedding, and it has been used as an animal model to measure the effect of pharmacological interventions in treatment of repetitive behavior disorders, such as OCD.
MPEP is a selective mGluR5 glutamate receptor antagonist. […] Mice in groups (1) are orally administered the vehicle, and mice in group (4) are given an intraperitoneal injection of MPEP just prior to the start of the test.
The test is conducted in rectangular cages with 4-5 cm of wood chip bedding in a room with the window shades lowered and the door closed to minimize distractions. Fifteen clean marbles are evenly spaced on top of the bedding in three rows of five marbles. One mouse is placed in each cage. The mouse and cage is left undisturbed for 30 minutes. At the end of the test, the mouse is removed and the number of marbles buried to at least ⅔ of their depth is counted.

[9] = system: C57 mice; experiment: Formalin Paw Test (Inflammatory Pain Model); type: in vivo
[10] = system: rats; experiment: Pulmonary function in rats; type: in vivo; conditions: for RR (breaths/min): 60 minutes
[11] = in vivo; conditions: rat, iv, 1 mg/kg
[12] = in vivo; conditions: mouse
[13] = system: rats; experiment: Gastrointestinal motility, activated charcoal transit in rats; conditions: morphine 5 mg/kg SC
[14] = Cmpd, PO 3.0 mg/kg, 30 min prior to formalin
[15] = Cmpd, SC 0.3 mg/kg, 30 min prior to formalin
[16] = Cmpd, SC 1.0 mg/kg, 30 min prior to formalin
[17] = Cmpd, SC 3.0 mg/kg, 30 min prior to formalin
[18] = morphine 5 mg/kg SC, 30 min prior to formalin

O=C1CN2c3c(cccc3[C@@H]3CN(CCCC(=O)c4ccc(F)cc4)CC[C@@H]32)N1 [Example 1]
ED50 [1]: 0.23 mg/kg | effect on tyrosine hydroxylase phosphorylation at Ser40 ([2]; 3 mg/kg, at 30 minutes or 60 minutes): neither the compound of Example 1 nor of Example 2 has a significant effect | effect on NR2B phosphorylation at Tyr1472 [3]: neither the compound of Example 1 nor of Example 2 has a significant effect | GluR1 phosphorylation at Ser845 [4]: slight increase | ERK2 phosphorylation at Thr183 and Tyr185 [5]: slight decrease | Ki [6]: 22 nM | inhibition at […] [7]: 47%

O=C1CN2c3c(cccc3[C@@H]3CN(CCCOc4ccc(F)cc4)CC[C@@H]32)N1 [Example 2, (6bR,10aS)-8-(3-(4-fluorophenoxy)propyl)-6b,7,8,9,10,10a-hexahydro-1H-pyrido[3′,4′:4,5]pyrrolo[1,2,3-de]quinoxalin-2(3H)-one]
ED50 [1]: 0.44 mg/kg | Marbles Buried ([8]; 0.3 mg/kg orally 30 minutes prior, of fifteen marbles, 30 min): 9.3 | Mean Behavior Rating (0-4), 0-10 Min [9, 14]: 0.9 | Mean Behavior Rating (0-4), 0-6 min [9, 14]: 1.5 | Mean Behavior Rating (0-4), 11-40 min [9, 14]: 0.8 | Mean Behavior Rating (0-4), 16-40 min [9, 14]: 0.9 | Mean Behavior Rating (0-4), 0-6 min [9, 15]: 2.3 | Mean Behavior Rating (0-4), 11-40 min [9, 15]: 1.0 | Mean Behavior Rating (0-4), 16-40 min [9, 15]: 1.2 | Mean Behavior Rating (0-4), 0-10 Min [9, 16]: 1.3 | Mean Behavior Rating (0-4), 0-6 min [9, 16]: 1.9 | Mean Behavior Rating (0-4), 11-40 min [9, 16]: 1.0 | Mean Behavior Rating (0-4), 16-40 min [9, 16]: 1.1 | Mean Behavior Rating (0-4), 0-10 Min [9, 17]: 0.8 | Mean Behavior Rating (0-4), 0-6 min [9, 17]: 1.3 | Mean Behavior Rating (0-4), 11-40 min [9, 17]: 0.1 | Mean Behavior Rating (0-4), 16-40 min [9, 17]: 0.1 | Mean Behavior Rating (0-4), 0-10 Min ([9]; mouse, in vivo): 1.5 | RR (breaths/min) ([10]; 0.3 mg/kg s.c.): 181 breaths/min | RR (breaths/min) ([10]; 1.0 mg/kg s.c.): 203 breaths/min | RR (breaths/min) ([10]; 3.0 mg/kg s.c.): 190 breaths/min | respiratory rate, tidal volume and minute volume compared to vehicle control ([10]; 0.3, 1.0 and 3.0 mg/kg s.c., 0, 15, 60, 120, and 240 minutes): no significant differences | bioavailability [11]: 100% | Tmax ([12]; brain, po, 10 mg/kg): 15 min | Tmax ([12]; brain, sc, 0.1 mg/kg): 60 min | Tmax ([12]; plasma, po, 10 mg/kg): 15 min | Tmax ([12]; plasma, sc, 0.1 mg/kg): 30 min

Cc1cccc(C#Cc2ccccc2)n1 [MPEP, 2-methyl-6-(phenylethynyl)pyridine, reference compound]
Marbles Buried ([8]; 20 mg/kg intraperitoneal just prior to test, positive control): 0.2

CN1CC[C@]23c4c5ccc(O)c4O[C@H]2[C@@H](O)C=C[C@H]3[C@H]1C5 [Morphine, morphine, reference compound]
Mean Behavior Rating (0-4), 0-10 Min [9, 18]: 1.1 | Mean Behavior Rating (0-4), 0-6 min [9, 18]: 1.7 | Mean Behavior Rating (0-4), 11-40 min [9, 18]: 0.2 | Mean Behavior Rating (0-4), 16-40 min [9, 18]: 0.2 | reduction in gastric motility [13]: ~50%

O=C(CCCN1CCC(O)(c2ccc(Cl)cc2)CC1)c1ccc(F)cc1 [haloperidol]
increase in TH phosphorylation [2]: greater than 400%

Cc1nc2n(c(=O)c1CCN1CCC(c3noc4cc(F)ccc34)CC1)CCCC2 [risperidone]
increase in TH phosphorylation [2]: greater than 500%
